Data as given in patent publication US20070185153A1 (priority 2005, published 2007).
Counter-ions that a name gives are not always drawn. Like-named read-outs stand apart in the source and are kept apart here.

Tested on: panel of Gram-positive organisms and panel of Gram-negative organisms
Assay: organism not typed
Assay type: cell-based
[1] = read-out: MIC (minimum inhibitory concentration)

Row | Structure (SMILES) | MIC [1] [µg/mL] | MIC (read-out: MIC values) [µg/mL]
1 | O=c1c(Cl)cc2ncc(F)c3c2n1CC3(O)CN1CCC(NCc2cc3c(cn2)OCCO3)CC1 (racemic) [Example 24, (4R/S)-8-Chloro-4-({4-[(2,3-dihydro[1,4]dioxino[2,3-c]pyridin-7-ylmethyl)amino]-1-piperidinyl}methyl)-3-fluoro-4-hydroxy-4,5-dihydro-7H-pyrrolo[3,2,1-de]-1,5-naphthyridin-7-one dihydrochloride] | ≤ 4 | 
2 | COc1cnc2ccc(=O)n3c2c1[C@](O)(CN1CCC(NCc2cc4c(nn2)OCCO4)CC1)C3 [Example 66] |  | ≥ 16
3 | O=c1[nH]c2ccccc2nc1CNC1CCN(C[C@]2(O)Cn3c(=O)ccc4ncc(F)c2c43)CC1 [Example 38] | ≤ 4 | 
4 | O=c1[nH]c(CNC2CCN(C[C@]3(O)Cn4c(=O)ccc5ncc(F)c3c54)CC2)nc2ccccc12 [Example 39] | ≤ 4 | 
5 | CC(C)n1nnc2cc(CNC3CCN(C[C@]4(O)Cn5c(=O)ccc6ncc(F)c4c65)CC3)ccc21 [Example 47] | ≤ 8 | 
6 | COc1cnc2ccc(=O)n3c2c1[C@](O)(CN1CCC(NCc2cc4c(cn2)OCCO4)CC1)C3 [Example 65] | ≤ 8 | 
